Experiments:
[1] = OFET characterization (saturation hole mobility); conditions: Au source and drain electrodes
Source text: The OFETs were fabricated onto nano-grooved SiO2 substrates prepared by rubbing n^++Si (500 μm)/SiO2 (300 nm) substrate (International Wafer Services Co.) with a diamond lapping disc with particle sizes of 100 nm (Allied High Tech Products Inc.) as described in detail in the previous reports. The Ni (5 nm)/Au (50 nm) source and drain electrodes were patterned on the SiO2 dielectrics through a conventional photolithography process. For OFETs with Ni source and drain electrodes, an additional Ni (10 nm) layer was deposited on top of the pre-deposited Au electrodes. All metal electrodes were deposited by electron beam evaporation at 7×10^−7 Torr. Then, the substrates were sonicated in acetone and isopropanol for cleaning, and were kept in an oven at >100° C. for overnight. After ultraviolet/ozone treatment of pre-cleaned nano-grooved SiO2 substrates for 10 min, the substrates were passivated with the Z-Cat-Ben or Z-Cat-Ben-F SAM by dropping SAM water solution (5 mM) onto the substrates for ˜1 min. The substrates were subsequently rinsed with deionized water for ˜1 min, and were kept in a low vacuum for 10 min to remove residual water. The PCDTPT (1-Material Inc.) was then cast from a chlorobenzene solution (0.25 mg mL^−1) through the sandwich casting in a nitrogen-filled glove box. The devices were then cured at 200° C. for 1 min prior to measurements, and were tested using a probe station (Signatone Co.) in a nitrogen-filled glove box. Data were collected by a Keithley 4200 system.
The field-effect mobilities in the saturation regime were extracted using the following equation, IDS=(W/2L)Cμ(VGS−VT)^2 (7) where, W is the channel width, L is the channel length, C is the gate dielectric capacitance per unit area, μ is the carrier mobility in the saturation regime, IDS is the drain-source current, and VGS is the gate-source voltage. Channel width/length is 1000/200 μm for the devices used in this study. Transistor Characteristics of OFETs with Z-Cat-Ben and Z-Cat-Ben-F: Contact Angle Measurements: […]

[2] = AFM adhesion force runs with silica probe on Z-Cat-C10 coated copper plate; type: physicochemical; conditions: CuO2/Cu(OH)2 and SiO2 surfaces
Method: AFM force runs were measured with and without Z-Cat-C10 on silicon wafer and copper plate, respectively, vs. silicon dioxide probe. Underwater force run was conducted for the surface prepared subsequently after spreading the 5 mM Z-Cat-C10, waiting for 2 min, rinsing thoroughly with degassed DI water thoroughly for 3 times. Dry force run was performed after ˜5 min dry of the surface prepared as for the underwater force run. […] Cantilever spring constant (K) for #=10 μm silica tip on silicon wafer and copper plate with Z-Cat-C10, was 0.1 N m^−1.
The measured adhesion, Fa, force (minimum of the potential well of the F vs. D curves obtained from AFM measurements) is related to the adhesion energy per unit area by Wa=Fa/2πR for rigid surfaces with weak adhesive interactions, and by Wa=Fa/1.5πR (used in this study) for soft deformable surfaces with strong adhesion or cohesion. […]
The adhesion/cohesion energy of the synthetic zwitterionic molecules was investigated in SFA (SurForce LLC, Santa Barbara, CA). […] The adhesion forces between Z-Cat-C10 molecules on various surfaces, e.g., silica and copper, were also measured by AFM (MFP-3D, Asylum research, Goleta, CA) in DI water and ambient conditions, respectively, at room temperature. […] Cantilever spring constants were measured for each force run. […]

[3] = Shear bonding strength of the lap joint; conditions: cross-sectional area 2.54 cm×2.54 cm, n=4
Method: The catecholic zwitterions were inspired by interfacial proteins (mfp-3 and -5) that function as adhesive primers, but not as bulk adhesives. To determine whether Z-Cat-C10 is limited to surface binding or develops measurable bulk cohesion (thickness […]), bulk rupture tests were done using a peeling-by-bending test to better mimic the role that interfacial proteins play in resisting plaque detachment as well as lap-shear bonding test. Lap joints were prepared by gluing two steel plates (SS304) immersed in water using the lower dense coacervate (˜10 μl) (FIGS. 24A-24H). The lap joint (cross-sectional area=2.54 cm×2.54 cm) prepared in artificial seawater or periodate solution, respectively, held a load up to 3 N underwater. […] After 12 h ambient drying, the joint prepared in 1 M periodate solution held much higher load, 11 N: Standard three point bending peel strength of the lap joint (cross-sectional area=2.54 cm×1.27 cm) was measured under ambient dry conditions after drying 12 h. […] Shear bonding strength of the lap joint (cross-sectional area=2.54 cm×2.54 cm) was also measured, 1.1 MPa (standard deviation=0.3, n=4)—similar to Dopa-functionalized polypeptide prepared under ambient dry conditions, 0.9 MPa. […]

[4] = Critical aggregation concentration by Wilhelmy plate tensiometry; type: physicochemical; conditions: DI water
Method: (§1) Aqueous colloidal dispersions of each homolog were prepared in deoxygenated deionized (DI) water. The critical aggregation concentration (CAC) was determined from the solution surface tension of varying homolog concentrations in deionized (DI) water (e.g., see the red line of Z-Cat-C10 in FIG. 2B) by Wilhelmy plate tensiometry and has been described elsewhere. Use of the CAC instead of CMC here is a hedge to accommodate the uncertainty about whether micelles or other soluble aggregates were forming.
as §1, with “the” for “the red”

[5] = AFM images of Z-Cat-C10 films; type: physicochemical; conditions: 5 mM, on silicon wafers and copper
Method: The adhesion/cohesion energy of the synthetic zwitterionic molecules was investigated in SFA (SurForce LLC, Santa Barbara, CA). Two molecularly smooth freshly cleaved back silvered mica surfaces glued on cylindrical silica discs of radius of curvature, R˜2 cm, were mounted in the SFA and 50 μL of a colloidal dispersion of the synthetic molecules in DI water were injected between the surfaces at different concentrations (C=0.5-5 mM) and the forces between the thin films of the molecules were measured by Multiple Beam Interferometry (MBI). The adhesion forces between Z-Cat-C10 molecules on various surfaces, e.g., silica and copper, were also measured by AFM (MFP-3D, Asylum research, Goleta, CA) in DI water and ambient conditions, respectively, at room temperature. AFM probes with a silicon dioxide particle (10, 5, and 1 μm, respectively) on a silicon nitride (SN) cantilever-0.6 N m^−1 were purchased from Novascan Technologies, Inc (Ames, IA). Cantilever spring constants were measured for each force run. Images of Z-Cat-C10 coating on silicon wafer and copper plates were visualized in an AFM.

critical aggregation concentration (CAC), rank [4] | film thickness (thin, molecularly smooth films) [5] [nm] | SMILES | saturation hole mobility μ [1] [cm^2 V^−1 s^−1] | adhesion Wad after air-drying ([2]; air-dried ~5 min) [mJ m^−2] | wet work of adhesion Wad ([2]; underwater) [mJ m^−2] | shear bonding strength of the lap joint [3] [MPa]
– | – | C[N+](C)(CCCc1ccccc1)CCOP(=O)([O-])OCCCc1ccc(O)c(O)c1 [Z-Cat-Ben] | 22±4 | – | – | –
lowest CAC among the homologs | ~2 | CN(C)CCOP(=O)(O)OCCCc1ccc(O)c(O)c1 [Z-Cat-C10] | – | ~4 | ~0.1 | 1.1

From US12415939B2, “Nano-adhesive and surface primer compound and use thereof” (The Regents of the University of California, priority 2015, dated 2025)
